Patent US8198287B2, “Substituted heteroaryl pyridopyrimidone derivatives” (Sanofi-Aventis, priority 2006, dated 2012)

Biological target: GSK3β (Homo sapiens, UniProt P49841)
Assay: Inhibitory activity against GSK3β (33P-ATP phosphorylation of prephosphorylated GS1 peptide; two alternative protocols)
Type: biochemical
Conditions: first or second protocol, not specified per compound
Experimental: Inhibitory Activity of the Medicament of the Present Invention Against GSK3β
Two different protocols can be used.
In a first protocol: 7.5 μM of prephosphorylated GS1 peptide and 10 μM ATP (containing 300,000 cpm of ^33P-ATP) were incubated in 25 mM Tris-HCl, pH 7.5, 0.6 mM DTT, 6 mM MgCl2, 0.6 mM EGTA, 0.05 mg/ml BSA buffer for 1 hour at room temperature in the presence of GSK3beta (total reaction volume: 100 microliters).
In a second protocol: 4.1 μM of prephosphorylated GS1 peptide and 42 μM ATP (containing 260,000 cpm ^33P-ATP) were incubated in 80 mM Mes-NaOH, pH 6.5, 1 mM Mg acetate, 0.5 mM EGTA, 5 mM 2-mercaptoethanol, 0.02% Tween 20, 10% glycerol buffer for 2 hours at room temperature in the presence of GSK3beta.
Inhibitors were solubilized in DMSO (final solvent concentration in the reaction medium, 1%).
The reaction was stopped with 100 microliters of a solution made of 25 g polyphosphoric acid (85% P2O5), 126 ml 85% H3PO4, H2O to 500 ml and then diluted to 1:100 before use. An aliquot of the reaction mixture was then transferred to Whatman P81 cation exchange filters and rinsed with the solution described above. Incorporated ^33P radioactivity was determined by liquid scintillation spectrometry.
The phosphorylated GS-1 peptide had the following sequence:
NH2—[…](P)EDEE-COOH. (Woodgett, J. R. (1989) Analytical Biochemistry 180, 237-241.

GSK3β, sequence (P49841 whole entry): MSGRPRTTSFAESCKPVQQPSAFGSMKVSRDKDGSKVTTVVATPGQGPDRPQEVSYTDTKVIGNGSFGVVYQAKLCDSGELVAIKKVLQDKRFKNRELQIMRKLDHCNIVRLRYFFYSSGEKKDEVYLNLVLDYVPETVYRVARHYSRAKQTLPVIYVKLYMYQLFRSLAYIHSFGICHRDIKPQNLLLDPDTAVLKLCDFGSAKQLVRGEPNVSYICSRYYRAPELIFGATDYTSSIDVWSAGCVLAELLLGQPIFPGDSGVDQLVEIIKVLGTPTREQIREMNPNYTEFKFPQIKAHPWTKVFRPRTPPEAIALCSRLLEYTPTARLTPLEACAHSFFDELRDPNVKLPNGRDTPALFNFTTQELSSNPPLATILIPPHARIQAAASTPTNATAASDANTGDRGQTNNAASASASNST

| SMILES | IC50 [nM] |
| --- | --- |
| Nc1c(Cl)cc(C(=O)NC2CCCn3c2nc(-c2ccncc2)cc3=O)c2c1OCCO2 (racemic) [13 of table 1, (+/−)8-Amino-7-chloro-2,3-dihydro-benzo[1,4]dioxine-5-carboxylic acid (4-oxo-2-pyridin-4-yl-6,7,8,9-tetrahydro-4H-pyrido[1,2-a]pyrimidin-9-yl)-amide] | 14 |
| CSc1ncc(Cl)c(C(=O)NC2CCn3c2nc(-c2ccncn2)cc3=O)n1 (racemic) [14 of table 2, (+/−)5-Chloro-2-methylsulfanyl-pyrimidine-4-carboxylic acid (4-oxo-2-pyrimidin-4-yl-4,6,7,8-tetrahydro-pyrrolo[1,2-a]pyrimidin-8-yl) -amide] | 4 |
| O=C(NC1CCCCn2c1nc(-c1ccncn1)cc2=O)c1cccc(Cl)n1 (racemic) [53 of table 3, (+/−)6-Chloro-pyridine-2-carboxylic acid (4-oxo-2-pyrimidin-4-yl-4,6,7,8,9,10-hexahydro-pyrimido[1,2-a]azepin-10-yl)-amide] | 5 |
